According to patent US20220334133A1, “METHODS AND COMPOUNDS MODIFYING MITOCHONDRIAL FUNCTION” (The Board of Trusteesof the Leland Stanford Junior …, priority 2019, published 2022):
Where a name gives a salt, the structure may show the parent alone.

What was measured:
Type in all cases: cell-based, human
[1] = tested on: Miro1; assay: High-throughput screening assay for Miro1 reduction after FCCP (immunostaining, 384-well); conditions: 10 μM tested
Procedure: Human dermal primary fibroblasts isolated from a PD patient (ND33424) and a healthy control (ND36091) were cultured in cell media DMEM (ThermoFisher, 11995-065) supplemented with 10% fetal bovine serum (Gemini Bio-Products, 900-108, heat-inactivated), 1×Anti Anti (ThermoFisher, 15240096), and 1×GlutaMax (ThermoFisher, 35050061) maintained in a 37° C., 5% CO2 incubator with humidified atmosphere.
Fibroblast cells were plated onto clear-bottomed/black-walled 384-well plates (EK-30091, E&K Scientific, Santa Clara, Calif.) at 2000 cells/well with Matrix Wellmate dispenser (Thermo Scientific, Sunnyvale, Calif.) and plates were incubated at 37° C., 5% CO2 for 24 hrs. Next, chemical library compounds at defined concentrations, were added using fully automated liquid handling system Caliper Life Sciences Staccato system with a Twister II robot and a Sciclone ALH3000 (Caliper Life Sciences, Alameda, Calif. USA) integrated with a V&P Scientific pin tool and plates were incubated at 37° C./5% CO2 for 10 hrs. Then, 20 μM of FCCP (Carbonyl cyanide 4-(trifluoromethoxy)phenylhydrazone, Sigma-Aldrich, C2920) in cell media was added to defined wells and plates were incubated at 37° C., 5% CO2 for another 14 hr. Cells were fixed with ice-cold 90% methanol (Fisher, 482332) for 20 min at −20° C., incubated with blocking buffer (10% Normal Goat Serum (NGS) (ThermoFisher, 50062Z), 0.5% BSA (ThermoFisher, BP1600), 0.2% Triton X-100 (ThermoFisher, T8787) at room temperature (RT) for 15 min, and incubated with anti-Miro1 solution (Sigma-Aldrich, HPA0101687) at 1:100 in blocking buffer O/N at 4° C. Samples were washed with lx PBS (ThermoFisher, 10010-049) using a Plate Washer multivalve (Bio-Tek, ELx405UV), incubated with goat anti-Rabbit IgG (H+L) Cross-Adsorbed, Alexa Fluor 488 (ThermoFisher, A11008) at 1:500 in blocking buffer at 25° C. for 2 hrs and washed again with lx PBS, finally 1.0 μg/mL DAPI (ThermoFisher, D1306) in 1×PBS was added and plates were sealed using PlateLoc (Velocity11, 01867.001). All liquids were dispensed using the Multidrop 384 (Titertek, 5840200) unless otherwise stated. Fluorescent signals in plates were automatically imaged with ImageXpress Micro (Molecular Devices, IXMicro) and data were analyzed with MetaXpress Analysis (Molecular Devices). The percent of Miro1 reduction was calculated as % Positive Cells for Miro1/Median=[(Positive Cells Miro Integrated Intensity/All Nuclear Miro Integrated Intensity)−Plate Median of this same calculation (Median % Positive Miro/Nuclear Miro in Plate Data)]/[Plate Median of this same calculation (Median % Positive Miro/Nuclear Miro in Plate Data)]. Positive cells are cells having Miro1 immunostaining. […] Negative value indicates a reduction in Miro. Positive value indicates an increase in Miro. The screening and data analysis were carried out together with Stanford University High-Throughput Bioscience Centers (HTBC).
Drugs from the NIH Clinical collection library were screened at a defined 10 μM concentration with 4 biological repeats for each drug (377 compounds). […] These compounds are ranked in the order of the degree of Miro1 reduction (Table 1A). 12 small molecules that reduced Miro1 protein levels in 3 out of 4 biological repeats were ranked in order of degree of Miro1 reduction. […] These hits were ranked in order of the degree of Miro1 reduction, with the six compounds found to reduce Miro1 protein levels by 20% or more shown (Table 1A). Moreover, an additional 12 small molecules reduced Miro1 protein levels in 3 out of 4 biological repeats (Table 1B). We next screened the Biomol FDA library with 5-fold doses (1.25-2.5-5-10-20 μM) and in duplicate. […] We ranked these 3 hits in the order of the degree of Miro1 reduction (Table 1A). Taken together, we identified 14 actives (2.5% primary hit rate) and 12 potential actives.

[2] = tested on: Miro1; assay: Hit confirmation: immunocytochemistry and confocal microscopy of Miro1 in sporadic PD fibroblasts; conditions: DMSO instead of FCCP, with compound at highest screening concentration; sporadic PD line; at least 4 biological replicates
Procedure: Fibroblast cells were plated in 6-well plates (VWR, 10861-554) on coverslips (Fisher scientific, 22-293232) at 400.000 cells/well and plates were incubated at 37° C., 5% CO2 for 24 hrs. Next, newly ordered chemical compounds dissolved in DMSO were added at defined concentrations and plates were incubated at 37° C./5% CO2 for 10 hrs. Then, FCCP (final concentration of 20 μM, Carbonyl cyanide 4-(trifluoromethoxy)phenylhydrazone, Sigma-Aldrich, C2920) in cell media was added to defined wells and plates were incubated at 37° C., 5% CO2 for another 14 hrs. Cells were fixed with ice-cold 90% methanol (Fisher, 482332) for 20 min at −20° C., incubated with blocking buffer (10% Normal Goat Serum (NGS) (ThermoFisher, 50062Z), 0.5% BSA (ThermoFisher, BP1600), 0.2% Triton X-100 (ThermoFisher, T8787)) at 25° C. for 15 min and incubated with anti-Miro1 (Sigma-Aldrich, HPA0101687) at 1:100 in blocking buffer O/N at 4° C. Samples were washed three times with 1×PBS (ThermoFisher, 10010-049), incubated with goat anti-Rabbit IgG (H+L) Cross-Adsorbed, Alexa Fluor 488 (ThermoFisher, A11008) at 1:500 in blocking buffer at 25° C. for 2 hrs and washed again three times with lx PBS, and finally samples were mounted with ProLong™ Glass Antifade Mountant with NucBlue™ Stain (hard-setting, Thermofisher, P36983) on glass slides and allowed to cure O/N. Samples were imaged at 25° C. with a 20×/N.A.0.60 oil Plan-Apochromat objective on a Leica SPE laser scanning confocal microscope (JH Technologies), with identical imaging parameters among different genotypes. Images were processed with ImageJ (Ver. 1.48, NIH) using the Intensity Ratio Nuclei Cytoplasm Tool (http://dev.mri.cnrs.fr/projects/imagej-macros/wiki/Intensity_Ratio_Nuclei_Cytoplasm_Tool), and average cytoplasmic intensity (the average intensity in the cytoplasm area) was plotted.
To reduce experimental bias such as the freshness the compounds, experimental reagents, and imaging devices, the 14 hits identified in the high-throughput screening were verified individually . The 14 compounds were tested at their highest screening concentrations with at least 4 biological replicates, using the same sporadic PD line. […] Samples were imaged with identical settings under the confocal microscope, and negative controls without primary antibodies yielded no signals under the imaging settings.

[3] = tested on: Fibroblast cells; assay: Toxicity observed in hit confirmation; conditions: highest screening concentration, sporadic PD fibroblast line
Procedure: Fibroblast cells were plated in 6-well plates (VWR, 10861-554) on coverslips (Fisher scientific, 22-293232) at 400.000 cells/well and plates were incubated at 37° C., 5% CO2 for 24 hrs. Next, newly ordered chemical compounds dissolved in DMSO were added at defined concentrations and plates were incubated at 37° C./5% CO2 for 10 hrs. Then, FCCP (final concentration of 20 μM, Carbonyl cyanide 4-(trifluoromethoxy)phenylhydrazone, Sigma-Aldrich, C2920) in cell media was added to defined wells and plates were incubated at 37° C., 5% CO2 for another 14 hrs. Cells were fixed with ice-cold 90% methanol (Fisher, 482332) for 20 min at −20° C., incubated with blocking buffer (10% Normal Goat Serum (NGS) (ThermoFisher, 50062Z), 0.5% BSA (ThermoFisher, BP1600), 0.2% Triton X-100 (ThermoFisher, T8787)) at 25° C. for 15 min and incubated with anti-Miro1 (Sigma-Aldrich, HPA0101687) at 1:100 in blocking buffer O/N at 4° C. […]

[4] = Table 1A hits, PD patient fibroblasts, following FCCP treatment (20 μM, 14 hr)
[5] = Table 1B additional small molecules (3 out of 4 biological repeats), following FCCP treatment

Compound: C[N+]1(C)CCC(OC(=O)C(O)(c2ccccc2)C2CCCC2)C1 (stereo not drawn) [Glycopyrrolate]
- % Miro1 decrease in screen [1, 4]: B (Reduction of Miro levels by >20% and less than 30%)

Compound: COc1ccc(/C=C/C(=O)Nc2ccccc2C(=O)O)cc1OC [Tranilast]
- % Miro1 decrease in screen [1, 4]: B (Reduction of Miro levels by >20% and less than 30%)

Compound: COc1ccc2[nH]c([S+]([O-])Cc3ncc(C)c(OC)c3C)nc2c1 (stereo not drawn) [Omeprazole]
- % Miro1 decrease in screen [1, 5]: C (Reduction of Miro by >10% and less than 20%)

Compound: C[C@H]1COc2c(C3(N)CC3)c(F)cc3c(=O)c(C(=O)O)cn1c23 [Pazufloxacin]
- % Miro1 decrease in screen [1, 5]: B (Reduction of Miro levels by >20% and less than 30%)

Compound: CN(CCCN1c2ccccc2CCc2ccccc21)CC(=O)c1ccc(Cl)cc1 [Lofepramine]
- Basal Miro1 levels (without mitochondrial depolarization) [2]: already reduced Miro1 protein at baseline

Compound: CC[C@H](C)C(=O)O[C@H]1C[C@H](O)C=C2C=C[C@H](C)[C@H](CC[C@@H](O)C[C@@H](O)CC(=O)O)[C@H]21 [Pravastatin Sodium]
- Basal Miro1 levels (without mitochondrial depolarization) [2]: already reduced Miro1 protein at baseline

Compound: Cn1nnc2c(C(N)=O)ncn2c1=O [Temozolomide]
- % Miro1 decrease in screen [1, 4]: A (Reduction of Miro levels by >30%)

Compound: O=C(O)CCC(=O)c1ccc(-c2ccccc2)cc1 [Fenbufen]
- Toxicity [3]: appeared toxic

Compound: CC(C(=O)O)c1ccc(CC2CCCC2=O)cc1 (stereo not drawn) [Loxoprofen]
- % Miro1 decrease in screen [1, 5]: B (Reduction of Miro levels by >20% and less than 30%)

Compound: CN(C)CCC[C@@]1(c2ccc(F)cc2)OCc2cc(C#N)ccc21 [Escitalopram Oxalate]
- Basal Miro1 levels (without mitochondrial depolarization) [2]: already reduced Miro1 protein at baseline
- % Miro1 decrease in screen [1, 4]: A (Reduction of Miro levels by >30%)

Compound: COC(=O)C1=C(C)NC(C)=C(C(=O)OC2CCCN(Cc3ccccc3)C2)C1c1cccc([N+](=O)[O-])c1 (stereo not drawn) [Benidipine HCl]
- Basal Miro1 levels (without mitochondrial depolarization) [2]: no impact on basal Miro1 levels
- % Miro1 decrease in screen [1, 4]: A (Reduction of Miro levels by >30%)

Compound: CC(C(=O)O)c1ccc(-c2ccccc2)c(F)c1 (stereo not drawn) [Flurbiprofen]
- % Miro1 decrease in screen [1, 5]: B (Reduction of Miro levels by >20% and less than 30%)

Compound: CNC(=O)Oc1ccc2c(c1)[C@]1(C)CCN(C)[C@@H]1N2C [Physostigmine]
- % Miro1 decrease in screen [1, 4]: B (Reduction of Miro levels by >20% and less than 30%)
